US7420056B2, “Substituted bicyclic imidazo-3-ylamine compounds” (Gruenenthal GmbH, priority 2004, dated 2008)

How the values were obtained:
male Sprague-Dawley rats = assay: Elevated plus maze (EPM) model, anxiolytic effect; type: in vivo; details: rat, 60 min after p.o. administration, in words
Method: 3. “Elevated Plus Maze” Model
Compounds are tested for a possible anxiolytic effect in the “elevated plus maze” (EPM) model. The tests are carried out on male Sprague-Dawley rats (200-250 g) using 2 “elevated plus mazes” (Med Associates) with electronically controlled infrared photobeams for determining the location of the animals in the maze. Each maze has 2 open and 2 closed arms and a central platform. The edges of the open arms are delimited by narrow strips. The entire maze is mounted on a metal stand.
At the beginning of a 5 minute test, each animal is individually placed on the central platform with its head in the direction of a closed arm.
The following parameters are determined or calculated and evaluated:
the number and percentage of entries into the open and closed arms,
and the percentage of time spent in the open and closed arms and on the central platform.
The data are analysed by means of single factor ANOVA (comparison of treatment groups vs. vehicle group). The significance level is set at p<0.05. All groups have a size of N=10.
The test is also described in Hogg, S. (1996) A review of the validity and variability of the elevated plus-maze as an animal model of anxiety. Pharmacol. Biochem. Behav. 54, 21-30 and Rodgers, R. J., Cole, J. C. (1994) The elevated plus-maze: pharmacology, methodology and ethology, in: Cooper, S. J., Hendrie, C. […]

[1] = test system: neuropathic pain in rats (cold allodynia); assay: Neuropathic pain in rats, Bennett model (chronic constriction injury), cold allodynia; type: in vivo; details: rat, p.o., in words
From the text: 2. Neuropathic Pain in Rats Efficacy against neuropathic pain was investigated in the Bennett model (chronic constriction injury; Bennett and Xie, 1988, Pain 33: 87-107). The corresponding parts of the literature are hereby deemed to be part of the present disclosure. Sprague-Dawley rats weighing 140-160 g are provided under Nembutal anaesthesia with four loose ligatures of the right ischial nerve. On the paw innervated by the damaged nerve, the animals develop hypersensitivity which, after one week's convalescence, is quantified over a period of approx. four weeks by means of a cold metal plate at 4° C. (cold allodynia). The animals are observed on this plate for a period of 2 min. and the number of withdrawal responses by the damaged paw is measured. […] The significance of an antiallodynic action is determined with reference to the AUC values by means of a paired T-test (*0.05≧p>0.01; **0.01≧p>0.001; ***p≦0.001; Armitage and Berry, 1987, Stat. Methods in Medical Research, London: Blackwell Scientific Publications).

SMILES: CC(C)(C)Nc1c(-c2ccc(C#Cc3ccccn3)s2)nc2ccccn12.Cl [Example 192, N-tert-butyl-2-(5-(pyridin-2-ylethynyl)thiophen-2-yl)imidazo[1,2-a]pyridin-3-amine hydrochloride]
- anxiolytic effect (male Sprague-Dawley rats): dose-dependent anxiolytic effect
- antiallodynic action [1]: pronounced, long-lasting antiallodynic action
